Measurements taken from US20090306020A1, “Combination therapy comprising diaryl ureas for treating diseases” (Bayer Healthcare AG, priority 2005, published 2009).
“Also recorded” adds a separate entry of the source.

Tests used:
[1] = system: Skmel28 metastatic melanoma cells; experiment: Ki-67 proliferation marker staining of melanoma reconstructs (organotypic culture); format: cell-based, human; settings: Skmel28 in dermal reconstructs; 4 μM wortmannin, 6 μM BAY 43-9006, alone or combined; 2-3 weeks
Method: (§1) The in vitro reconstruction of metastatic melanoma is based on the organotypic human skin culture technique (14). A cell-free buffered collagen solution was prepared consisting of rat tail collagen type I (BD Biosciences, Bedford, Mass., USA) at a final concentration of 1.35 mg/ml in Dulbecco's modified Eagle's medium with 10% FBS. 1.0 ml of the cell-free collagen solution was added to tissue culture inserts (Millicell PC, Millipore, Bedford, Mass., USA) placed in six-well tissue culture plates. While the acellular collagen layer was solidifying, a second collagen solution was prepared similar to the first with the addition of human fibroblasts and the melanoma cells SKMEL28 or 451 LU. Human fibroblasts and human melanoma cells from subconfluent cultures were trypsinised, washed and resuspended in the second collagen solution at a density of 15×10^5/ml and a fibroblast to melanoma cell ratio of 1:1. 3.0 ml of the fibroblast and melanoma cell-containing collagen solution were placed over the solidified acellular collagen layer. After 5 days of incubation at 37° C., the fibroblast contraction force causes the collagen gel to contract. This structure represents the melanoma reconstruct in a dermal equivalent. […] After 10 to 14 days of submerged culture, the melanoma reconstructs were harvested and evaluated. […]

β3 integrin = experiment: Immunohistochemistry for β3 integrin in metastatic melanoma reconstructs; format: cell-based, human; settings: Skmel28 and WM451Lu in dermal reconstructs, 4 μM wortmannin, 6 μM BAY 43-9006, alone or combined
Method: (§2) The in vitro reconstruction of metastatic melanoma is based on the organotypic human skin culture technique (14). A cell-free buffered collagen solution was prepared consisting of rat tail collagen type I (BD Biosciences, Bedford, Mass., USA) at a final concentration of 1.35 mg/ml in Dulbecco's modified Eagle's medium with 10% FBS. 1.0 ml of the cell-free collagen solution was added to tissue culture inserts (Millicell PC, Millipore, Bedford, Mass., USA) placed in six-well tissue culture plates. While the acellular collagen layer was solidifying, a second collagen solution was prepared similar to the first with the addition of human fibroblasts and the melanoma cells SKMEL28 or 451 LU. Human fibroblasts and human melanoma cells from subconfluent cultures were trypsinised, washed and resuspended in the second collagen solution at a density of 15×10^5/ml and a fibroblast to melanoma cell ratio of 1:1. 3.0 ml of the fibroblast and melanoma cell-containing collagen solution were placed over the solidified acellular collagen layer. After 5 days of incubation at 37° C., the fibroblast contraction force causes the collagen gel to contract. This structure represents the melanoma reconstruct in a dermal equivalent. For submerged culture conditions, 3 ml of melanoma cell culture medium supplemented with 10% FBS were added beneath the insert and 2 ml inside the insert to allow proliferation of the seeded cells. The culture medium was changed every two days. After 10 to 14 days of submerged culture, the melanoma reconstructs were harvested and evaluated.
For blockade of the AKT and MAPK signaling pathways, the PI3K inhibitor wortmannin (Sigma, Steinheim, Germany) and BAY 43-9006 alone or in combination were added directly to the culture medium of the melanoma reconstructs or melanoma cells in monolayer culture at 4 μM and 6 μM, respectively. These concentrations have been described previously to be effective for melanoma cells 6 (16). The culture medium was changed every two days. […]

[2] = system: Skmel28 metastatic melanoma cells; experiment: Active caspase 3 staining (apoptosis) of melanoma reconstructs; format: cell-based, human; settings: Skmel28 in dermal reconstructs; wortmannin, BAY 43-9006 or both
Method: as §1

MelCAM [3] = experiment: Immunohistochemistry for MelCAM in metastatic melanoma reconstructs; format: cell-based, human; settings: Skmel28 and WM451Lu in dermal reconstructs; 4 μM wortmannin, 6 μM BAY 43-9006, alone or combined
Method: as §1

[4] = system: 451Lu metastatic melanoma cells; experiment: Proliferation assay (fluorimetric, 4-methylumbelliferyl heptanoate, MUH), monolayer culture; format: cell-based, human; settings: 451Lu monolayer; wortmannin 2-20 μM, BAY 43-9006 1-7 μM; MUH fluorescence
Method: Cells were seeded as triplicates in 96 well plates at a density of 1,500 cells per well in 150 μl medium (1×10^4 cells per ml). The PI3K inhibitor wortmannin (Sigma, Steinheim, Germany) was directly added to the culture medium at concentrations ranging from 2-20 μM. BAY 43-9006 was added directly to the culture medium at concentrations ranging from 0.5-7 μM. Culture medium, cells treated with culture medium, and cells treated with culture medium with the addition of DMSO served as controls. Assay was started at timepoints indicated. Medium was discarded and each well was washed two times with PBS (without Ca2+ and Mg2+) and 100 μl of a solution containing 100 μg MUH (4-methylumbelliferyl-hepanoat)/ml PBS was added. Plates were incubated at 37° C. for one hour and measured in a Fluoroskan II (Labsystems, Helsinki), with an […]. The intensity of fluorescence indicates the number of vital cells in the wells (18,19).
To analyze the effects of inhibition of either the MAPK or AKT signaling pathways or both together on the proliferation of melanoma cells, we treated the metastatic melanoma cell line 451Lu in monolayer with the PI3K inhibitor wortmannin, BAY 43-9006, or both together. […]
The effect of inhibition of these signaling pathways on cell proliferation was determined by a fluorimetric assay using 4-methylumbelliferyl heptanoate (MUH) (18, 19).

avβ3 integrin = experiment: Flow cytometry of cell surface avβ3 integrin, 451Lu monolayer; format: cell-based, human; settings: 4 μM wortmannin, 6 μM BAY 43-9006, alone or combined, 96 hours
Method: (§3) For blockade of the AKT and MAPK signaling pathways, the PI3K inhibitor wortmannin (Sigma, Steinheim, Germany) and BAY 43-9006 alone or in combination were added directly to the culture medium of the melanoma reconstructs or melanoma cells in monolayer culture at 4 μM and 6 μM, respectively. […] The culture medium was changed every two days. Melanoma reconstructs treated with culture medium or culture medium with the addition of DMSO served as controls. All experiments were done as duplicates and were repeated twice.
(§4) Surface proteins of 1×10^5-1×10^6 451Lu metastatic melanoma cells were stained as follows: Cells were pelleted for 5 min at 1,800 rpm (Heraeus variofuge 3.0R), blocked with 1×PBS/1% BSA, and after centrifugation incubated with antibodies against MeI-CAM (QBiogene-Alexis) or avβ3 integrin (BD Biosciences, Heidelberg) for 15 minutes at room temperature. Cells were washed with 1×PBS/1% BSA and subsequently incubated with anti mouse IgG-FITC (BD Biosciences, Heidelberg) or mouse IgG-isotype control-FITC alone (BD Biosciences, Heidelberg). After washing and pelleting the cells, the cell pellet was resuspended in 1×PBS and measured in a FACScalibur (BD Bioscienses, Heidelberg).
(§5) Furthermore, we examined whether inhibition of these signaling pathways affected expression of the adhesion molecules MelCAM and avβ3 known to play a key role in melanoma cell invasion. […]

[5] = system: phospho-ERK (phospho-p44/42 MAP kinase, Thr202/Tyr204); experiment: Immunohistochemistry for phosphorylated ERK in melanoma reconstructs; format: cell-based, human; settings: Skmel28 reconstructs; 6 μM BAY 43-9006
Method: as §1

[6] = system: Skmel28 metastatic melanoma cells; experiment: Invasive melanoma growth in human dermal reconstructs (hematoxylin staining); format: cell-based; settings: 4 μM wortmannin; for invasive melanoma growth (number and size of melanoma cell nests): 6 μM BAY 43-9006, alone or combined
Method: as §2
For blockade of the AKT and MAPK signaling pathways, the PI3K inhibitor wortmannin (Sigma, Steinheim, Germany) and BAY 43-9006 alone or in combination were added directly to the culture medium of the melanoma reconstructs or melanoma cells in monolayer culture at 4 μM and 6 μM, respectively. These concentrations have been described previously to be effective for melanoma cells 6 (16). The culture medium was changed every two days. Melanoma reconstructs treated with culture medium or culture medium with the addition of DMSO served as controls. All experiments were done as duplicates and were repeated twice.
Melanoma reconstructs were fixed with 4% formaldehyde for 8-9 h, dehydrated, and embedded in paraffin. Paraffin sections were stained with hematoxylin for routine light microscopy. […]
Finally, we determined whether the inhibition of the PI3K/AKT signaling pathway and the MAP kinase signaling pathway is able to affect invasive melanoma growth in a physiological context. […]

MelCAM [7] = experiment: Flow cytometry of cell surface MelCAM, 451Lu monolayer; format: cell-based, human; settings: 4 μM wortmannin, 6 μM BAY 43-9006, alone or combined, 96 hours
Method: as §3, §4, §5

phospho-AKT (Ser473) = experiment: Immunohistochemistry for phosphorylated AKT in melanoma reconstructs; format: cell-based, human; settings: Skmel28 reconstructs; 4 μM wortmannin
Method: as §1

In the case of `CNC(=O)c1cc(Oc2ccc(NC(=O)Nc3ccc(Cl)c(C(F)(F)F)c3)cc2)ccn1` [BAY 43-9006, 4{4-[3-(4-chloro-3-trifluoromethylphenyl)-ureido]-phenoxy}-pyridine-2-carboxylic acid methyl amide], the “cell proliferation (Ki-67 staining)” value [1] is reported as “significant decrease in cell proliferation”, the “expression of β3 integrin” value (β3 integrin) is reported as “significantly reduced; also recorded: substantially reduced β3 integrin expression” and the “active caspase 3 (ongoing apoptosis)” value [2] is reported as “active caspase 3 was found in the majority of Skmel28 metastatic melanoma cells”. The “expression of MelCAM” value (MelCAM [3]) was “not affected; also recorded: did not appear to affect MelCAM expression”, the “effect on number of proliferating (vital) cells / proliferation rate” value [4] was “significantly reduced; also recorded: significant decrease in cell proliferation” and the “cell surface expression of avβ3 integrin” value (avβ3 integrin) was “down-regulates the expression of avβ3 integrin; also recorded: down-regulated”. For the same compound, the “inhibition of phosphorylation of ERK (MAP-kinase pathway)” value [5] was “effective in the inhibition of phosphorylation” and the “invasive melanoma growth (number and size of melanoma cell nests)” value [6] was “reduced invasive tumor growth; also recorded: reduced number and size of melanoma cell nests”.
`COC[C@H]1OC(=O)c2coc3c2[C@@]1(C)C1=C(C3=O)[C@@H]2CCC(=O)[C@@]2(C)C[C@H]1OC(C)=O` [wortmannin] was tested, and the “cell proliferation (Ki-67 staining)” value [1] was “little or no effect on proliferation rate”, the “expression of β3 integrin” value (β3 integrin) was “not altered” and the “expression of β3 integrin” value (β3 integrin; listed as Wortmannin) was “not affected”. The “active caspase 3 (ongoing apoptosis)” value [2] was “active caspase 3 was found in the majority of Skmel28 metastatic melanoma cells”, the “expression of MelCAM” value (MelCAM [3]) was “downregulated the expression of MelCAM” and the “cell surface expression of MelCAM” value (MelCAM [7]) was “downregulates the expression of the adhesion molecules MelCAM; also recorded: down-regulates cell surface expression of MelCAM”. For the same compound, the “inhibition of phosphorylation of AKT” value (phospho-AKT (Ser473)) was “effective in the inhibition of phosphorylation”, the “effect on number of proliferating (vital) cells / proliferation rate” value [4] was “Little or no effect on the number of proliferating cells; also recorded: no significant effect on the number of proliferating cells” and the “cohesion of melanoma cells (melanoma-melanoma cell adhesion)” value [6] was “decreased”. For the same compound, the “morphology of melanoma cells” value [6] was “multidendritic morphology; also recorded: multidendritic phenotype” and the “invasive melanoma growth (number and size of melanoma cell nests)” value [6] was “reduced invasive tumor growth; also recorded: number and size of melanoma cell nests were reduced”.
